{
  "source": "patent US7601850B2",
  "about": "“Phenyl-thiophene type vitamin D receptor modulators” (Eli Lilly and Company, priority 2002, dated 2009)",
  "key": {"RXR-VDR heterodimer": {"target": "T1, RXR-VDR heterodimer (Homo sapiens, UniProt P11473)", "T1 construct": "Add the Gal-4-RXR-DEF and VP16-VDR-LBD; expressed in transfected cells; host or cells: SaOS-2 cells", "T1 sequence (P11473 127-423 limits assumed)": "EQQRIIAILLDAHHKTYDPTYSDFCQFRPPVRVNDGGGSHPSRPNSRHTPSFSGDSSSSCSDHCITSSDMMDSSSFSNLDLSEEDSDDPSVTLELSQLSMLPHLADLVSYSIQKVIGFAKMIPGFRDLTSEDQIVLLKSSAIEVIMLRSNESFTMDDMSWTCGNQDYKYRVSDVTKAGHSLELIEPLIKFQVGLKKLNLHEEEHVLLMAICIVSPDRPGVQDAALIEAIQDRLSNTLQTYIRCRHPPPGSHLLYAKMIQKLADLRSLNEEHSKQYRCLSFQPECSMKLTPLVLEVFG", "T1 sequence (P19793 201-462 partner limits assumed)": "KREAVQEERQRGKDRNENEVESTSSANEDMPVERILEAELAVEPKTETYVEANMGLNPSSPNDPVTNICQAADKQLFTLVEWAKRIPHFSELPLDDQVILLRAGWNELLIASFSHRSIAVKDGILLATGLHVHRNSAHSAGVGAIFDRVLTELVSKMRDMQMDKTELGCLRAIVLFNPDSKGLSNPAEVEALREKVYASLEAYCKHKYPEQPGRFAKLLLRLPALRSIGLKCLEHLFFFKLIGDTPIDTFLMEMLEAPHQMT", "test": "RXR-VDR heterodimerization assay (SaOS-2 cells)", "format": "cell-based", "from_the_text": "2. The RXR-VDR heterodimerization (SaOS-2 cells) test is described in the “Assay” section of the Description, infra.\n1. The RXR-VDR heterodimerAssay:\nThis assay provides the VDR activity of a test compound.\n(1) Materials and Method for RXR-VDR Heterodimerization Assay:\nLuciferase Assay Reagent: • Use Steady-Glo Luciferase Reagent from Promega (Cat # E2550) Consists of: • a. E2533 Assay Substrate, lyopholized product and • b. […] DAY 2: Transfection Step 1: DNA and Media • Add plain DMEM media to tubes for mixing the DNA • Add the Reporter gene pFR-LUC • Add the Gal-4-RXR-DEF and VP16-VDR-LBD Step 2: FuGENE and Media • Prepare plain DMEM media in a ubes for mixing FuGENE • Add FuGENE 6 Transfection Reagent • Incubate Step 3: FuGENE, DNA and Media Complex • Add FuGENE Media complex from step 2 to DNA Media complex from step 1 • Incubate Step 4: FuGENE, DNA and Media Complex to-well plate • Add FuGENE-DNA-Media complex from step 3 to each plate • Incubate. […] Day 4: Luciferase Assay • Read the plates after drug treatment • Remove part of media from all the wells and leave remainder • Add Steady-Glo Luciferase Reagent mixture/wells • Incubate • Count each well using a Luminescence counter, Top Count NXT by Packard\nSet a delay between plates to reduce the background."}, "VDR": {"target": "T2, VDR (Homo sapiens, UniProt P11473)", "T2 construct": "the receptor expression vector pGa14-VDR-LBD (10 ng); expressed in transfected cells; host or cells: Caco-2 cells", "T2 sequence (P11473 127-423 limits assumed)": "T1 sequence (P11473 127-423 limits assumed)", "test": "VDR CTF (Caco-2 cell co-transfection assay)", "format": "cell-based", "conditions": "Caco-2 cells", "experimental": "3. The VDR CTF (Caco-2 cells) test is described in the “Assay” section of the Description, infra.\n2. The Caco-2 Cell Co-Transfection Assay:\nThe Caco-2 cell assay is an indicator for the undesirable condition of hypercalcemia. This co-transfection assay is a surrogate assay for in vivo calcemic activity of VDR ligands. […] Preferred assay results are greater than 1000 nM.\n(2) Materials and Method for The Caco-2 Cell Assay:\nCaco-2 cells, grown in phenol red free, DMEM (Invitrogen, Carlsbad, Calif.) containing 10% charcoal-stripped FCS (Hyclone, Logan, Utah), were transfected with Fugene 6 reagent (Roche Diagnostics, Indianapolis, Ind.). Cells (5000/well) were plated 18 h before transfection in a 96 well plate. The Cells were transfected with Gal-4-responsive reporter pFRLuc (150 ng, Stratagene, La Jolla Calif.) and the receptor expression vector pGa14-VDR-LBD (10 ng), along with Fugene 6 reagent (0.2 µl/well). The DNA-Fugene complex was formed by incubating the mixture for 30 min at room temperature. The cells were transfected in triplicate for 5 h, and treated with various concentrations of VDR ligands (form 0.01 nM to 10,000 nM concentration range) 18 h post-transfection. The luciferase activity was quantified using Steady-Glo reagent kit (Promega, Madison, Wis.) as per manufacturer's specifications."}, "rat osteocalcin promoter": {"system": "rat osteocalcin promoter", "test": "OCN (osteocalcin) promoter assay in RG-15 (ROS 17/2.8) cells", "format": "cell-based", "outline": "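Rat osteoblast-like RG-15 (ROS 17/2.8) cells stably carry the rat osteocalcin promoter fused to luciferase. They were treated with compounds for 48 h in medium with 2% FBS and 0.01% DMSO. EC50 was derived from luciferase activity in cell lysates.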"}, "[1]": {"test": "Mouse hypercalcemia assay (six day, serum ionized calcium)", "format": "in vivo"}},
  "data": [
    {"smiles": "CCCc1cc(C(CC)(CC)c2ccc(C(=O)O)s2)ccc1OCC(O)C(C)(C)C", "note": "(single isomer, unassigned) [Ex. 95, 3′-[4-(2-hydroxy-3,3-dimethylbutoxy)-3-n-propylphenyl]-3′-[5-carboxy-thiophen-2-yl]pentane]", "values": [
      {"measurement": "EC50", "setting": "RXR-VDR heterodimer", "value": 421, "unit": "nM"},
      {"measurement": "EC50", "setting": "VDR", "value": 1180, "unit": "nM"},
      {"measurement": "EC50", "setting": "rat osteocalcin promoter", "value": 21.4, "unit": "nM"},
      {"measurement": "Mouse Hypercal", "setting": "[1]", "value": ">6000", "unit": "µg/kg/day"}
    ]}
  ]
}
